Laboratory results as given in patent EP4745138A1, “THIO-GLUTARIMIDO ISOINDOLINONE DERIVATIVE, BIFUNCTIONAL PROTEIN DEGRADER CONTAINING SAME, AND USES THEREOF” (Gluetacs Therapeutics (Shanghai) Co., Ltd., priority 2023, dated 2025).
Read-outs that look alike come from different tables or passages of the source.

Columns and labels:
AKT = assay: Western blot, target protein degradation in hPBMC Cell; assay type: cell-based, Human; conditions: substrate protein remaining %, treated at 50 nM and 500 nM, 24 hours
Procedure: (§1) Conventional Western blot assay was performed to evaluate the effects of the compounds of the present disclosure on the expression of target proteins in cells.
(§2) (1) Cell Seeding and Protein Harvesting: The selected cells were processed according to the cell seeding procedure and protein harvesting procedure in Table II-2. Table II-2 Cell Seeding and Protein Harvesting Procedures
(§3) (2) To the collected supernatant, 5X SDS sample loading buffer was added, followed by denaturation at 95°C for 5 minutes. The denatured samples were then separated by SDS-PAGE electrophoresis on a polyacrylamide gel. Proteins were transferred to a nitrocellulose membrane (0.45 µm NC membrane), blocked with blocking buffer at room temperature for 1 hour, and subjected to antibody incubation and development procedures according to the antibody manufacturer's instructions (Cell Signaling Technology).
(§4) Half-Maximal Degradation Concentration value (the drug concentration required for degrading proteins by 50%, abbreviated as DC50) reads method: comparing the grayscale values of Western blot bands from drug-treated samples with those from blank DMSO-treated controls, and identifying the drug concentration range at which the grayscale value is half that of the DMSO-treated control bands.
(§5) DC50 values can be calculated using ImageJ software to measure grayscale values of Western blot bands from drug-treated samples. The concentration-response curve is fitted to estimate the drug concentration corresponding to half the grayscale value.
(§6) Target protein remaining (%) refers to the percentage of target protein remaining in cells after treatment with protein degrader compounds.
(§7) Calculation method for target protein remaining (%): Use ImageJ software to measure grayscale values of Western blot bands from drug (protein degrader)-treated samples. The grayscale value of drug-treated bands is divided by that of internal control protein bands, and the resulting quotient is normalized to obtain the relative percentage of remaining target protein after protein degrader treatment. […]

[1] = molecular target: T1, human Cereblon WT GST-tagged protein (Homo sapiens, UniProt Q96SW2); assay: CRBN-binding affinity, HTRF (CEREBLON BINDING kit); conditions: for inhibition at 0.5 µM: read-out: Inhibition Rate at 0.5 µM (%); for inhibition at 2 µM: read-out: Inhibition Rate at 2 µM (%)
T1 construct: purchased CISBIO 64BDCRBNPEH
Summary of the method: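 Readout is homogeneous time-resolved fluorescence, measuring displacement of a thalidomide-red tracer from GST-tagged Cereblon detected by a europium anti-GST antibody. Compounds were tested at final 2 µM and 0.5 µM after dilution in diluent #9 (1X).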

Tau = assay: Western blot, target protein degradation in H4 Cell; assay type: cell-based; conditions: substrate protein remaining %, treated at 500 nM and 50 nM, 24 hours
Procedure: as §1, §2, §3, §4, §5, §6, §7

HCC827 = assay: Tumor cell proliferation inhibition (CellTiter-Meiluncell Luminescent Cell Viability Assay); conditions: Homo sapiens, 96 hours, Table I-1, designed based on the ALK inhibitors, read-out: Inhibitory activity (IC50, nM) HCC827
Procedure: (§8) The tumor cells used herein were cultured in a cell culture medium listed in table 3 at 37°C in an incubator with 5% CO2. Prior to experimentation, all cell lines used were correctly identified by STR profiling, and tested negative for mycoplasma contamination using a mycoplasma detection kit through routine screenings. Table 3. Tumor cells and cell culture medium used in the present disclosure
(§9) The IC50 values of the compounds of the present disclosure (including the compounds in Table 1, Table 2, and Examples) were determined using the CellTiter-Meiluncell Luminescent Cell Viability Assay Kit from Dalian Meilun Biotech Co., Ltd. The detailed procedure is as follows: Tumor cells were seeded in 96-well cell culture plates at the densities specified in Table 4. On the following day, the test compounds of the present disclosure were subjected to serial dilution. […] Subsequently, 0.5 µL of the test compound dilution was transferred into the 96-well plate containing the cells, with each well containing 100 µL of cell culture medium. […] Into the 96-well plate, the diluted test compounds and corresponding detection reagents were added, resulting in final test compound concentrations of 500 nM and 10 nM, respectively. The experimental procedure is described below using the diluted 2 µM test compound as an example.
(§10) 0.5 µL of the aforementioned diluted compound of the present disclosure (including the compounds in Table 1, Table 2, and Examples) was added to the seeded cells in 100 µL of medium, yielding a final test compound concentration of 10 nM. After the cells were treated with the compounds of the present disclosure for a specified period, the cell viability assay reagent was added to the culture medium according to the kit's instructions to determine cell viability. […] All controls were treated using the same procedure as the compounds of the present disclosure. […] Seeding protocol and treatment time for tumor cells

SR = assay: as above; conditions: Homo sapiens, 96 hours, Table I-1, designed based on the ALK inhibitors, read-out: Inhibitory activity (IC50, nM) SR
Procedure: as §8, §9, §10

ALK = molecular target: T2, ALK (Homo sapiens, UniProt Q96SW2+Q9HC35+Q9UM73); assay: Western blot, target protein degradation in H2228 Cell; assay type: cell-based; conditions: substrate protein remaining %, treated at 500 nM and 50 nM, 24 hours
T2 construct: endogenous in cells; host or cells: H2228
Procedure: as §1, §2, §3, §4, §5, §6
Calculation method for target protein remaining (%): Use ImageJ software to measure grayscale values of Western blot bands from drug (protein degrader)-treated samples. The grayscale value of drug-treated bands is divided by that of internal control protein bands, and the resulting quotient is normalized to obtain the relative percentage of remaining target protein after protein degrader treatment. Target protein degradation rate(%) = 1−target protein remaining(%). [formula]

A375 = assay: Tumor cell proliferation inhibition (CellTiter-Meiluncell Luminescent Cell Viability Assay); assay type: cell-based; conditions: Homo sapiens, 96 hours, Table I-2, ALK inhibitors
Summary of the method: (§11)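 Luminescent viability read-out (CellTiter-Meiluncell) after compound exposure for a specified time; IC50 determined. Seeding was done the day before dosing with serially diluted compound, final concentrations including 500 nM and 10 nM. Culture at 37°C, 5% CO2.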

CFPAC-1 = assay: as above; assay type: cell-based; conditions: Homo sapiens, 96 hours, Table I-2, ALK inhibitors
Summary of the method: as §11

MCF-7 = assay: as above; assay type: cell-based; conditions: Homo sapiens, 96 hours, Table I-2, ALK inhibitors
Summary of the method: (§12)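 Following overnight seeding, tumor cells received serial compound dilutions to final levels that included 10 nM and 500 nM. Viability was assessed by luminescence at the end of the specified exposure time. Cultures were kept at 37°C with 5% CO2.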

MM.1S = assay: as above; assay type: cell-based; conditions: Homo sapiens, MM1.S, MM.1S, 96 hours; for inhibition at 0.01 µM: 10 nM, read-out: Inhibition Rate at 10 nM (%); for inhibition at 0.5 µM: 500 nM, read-out: Inhibition Rate at 500 nM (%)
Summary of the method: as §12

MV-4-11 = assay: as above; assay type: cell-based; conditions: Homo sapiens, 96 hours, Table I-2, ALK inhibitors
Summary of the method: as §12

T1 sequence (Q96SW2 whole entry): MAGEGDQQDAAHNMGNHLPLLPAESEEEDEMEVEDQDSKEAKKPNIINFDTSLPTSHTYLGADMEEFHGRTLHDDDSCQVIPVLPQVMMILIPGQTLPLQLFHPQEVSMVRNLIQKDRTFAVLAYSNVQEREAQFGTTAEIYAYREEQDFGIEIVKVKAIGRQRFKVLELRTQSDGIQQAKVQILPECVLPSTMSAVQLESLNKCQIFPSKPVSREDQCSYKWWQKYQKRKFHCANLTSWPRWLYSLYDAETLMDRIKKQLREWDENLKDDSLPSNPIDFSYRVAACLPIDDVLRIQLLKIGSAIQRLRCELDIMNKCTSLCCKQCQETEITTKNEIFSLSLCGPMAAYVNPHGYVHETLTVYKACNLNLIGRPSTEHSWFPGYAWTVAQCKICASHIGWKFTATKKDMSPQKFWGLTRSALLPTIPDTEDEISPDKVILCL
T2 sequence (Q9HC35+Q9UM73 fused): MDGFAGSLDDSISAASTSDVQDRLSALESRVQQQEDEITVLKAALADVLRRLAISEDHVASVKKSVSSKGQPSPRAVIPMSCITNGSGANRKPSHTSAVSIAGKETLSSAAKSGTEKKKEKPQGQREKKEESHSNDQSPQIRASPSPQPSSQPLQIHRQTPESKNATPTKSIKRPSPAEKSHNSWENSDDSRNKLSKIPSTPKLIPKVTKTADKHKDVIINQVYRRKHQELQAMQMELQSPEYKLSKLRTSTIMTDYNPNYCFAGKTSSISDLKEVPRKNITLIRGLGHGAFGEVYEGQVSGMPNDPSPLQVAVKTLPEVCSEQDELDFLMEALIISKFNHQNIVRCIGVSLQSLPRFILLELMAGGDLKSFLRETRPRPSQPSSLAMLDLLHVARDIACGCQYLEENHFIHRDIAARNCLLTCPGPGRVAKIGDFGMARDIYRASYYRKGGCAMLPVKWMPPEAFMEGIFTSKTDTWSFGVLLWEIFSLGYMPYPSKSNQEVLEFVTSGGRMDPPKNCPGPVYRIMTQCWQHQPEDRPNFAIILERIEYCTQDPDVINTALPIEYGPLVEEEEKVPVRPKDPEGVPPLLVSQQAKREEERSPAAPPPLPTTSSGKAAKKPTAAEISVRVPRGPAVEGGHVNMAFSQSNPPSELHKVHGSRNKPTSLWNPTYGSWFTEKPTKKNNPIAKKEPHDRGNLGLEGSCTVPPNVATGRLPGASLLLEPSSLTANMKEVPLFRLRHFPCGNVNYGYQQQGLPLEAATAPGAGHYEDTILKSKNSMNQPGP
T2 sequence (Q96SW2 whole entry): as the sequence (Q96SW2 whole entry) above
T2 sequence (Q16531 whole entry partner): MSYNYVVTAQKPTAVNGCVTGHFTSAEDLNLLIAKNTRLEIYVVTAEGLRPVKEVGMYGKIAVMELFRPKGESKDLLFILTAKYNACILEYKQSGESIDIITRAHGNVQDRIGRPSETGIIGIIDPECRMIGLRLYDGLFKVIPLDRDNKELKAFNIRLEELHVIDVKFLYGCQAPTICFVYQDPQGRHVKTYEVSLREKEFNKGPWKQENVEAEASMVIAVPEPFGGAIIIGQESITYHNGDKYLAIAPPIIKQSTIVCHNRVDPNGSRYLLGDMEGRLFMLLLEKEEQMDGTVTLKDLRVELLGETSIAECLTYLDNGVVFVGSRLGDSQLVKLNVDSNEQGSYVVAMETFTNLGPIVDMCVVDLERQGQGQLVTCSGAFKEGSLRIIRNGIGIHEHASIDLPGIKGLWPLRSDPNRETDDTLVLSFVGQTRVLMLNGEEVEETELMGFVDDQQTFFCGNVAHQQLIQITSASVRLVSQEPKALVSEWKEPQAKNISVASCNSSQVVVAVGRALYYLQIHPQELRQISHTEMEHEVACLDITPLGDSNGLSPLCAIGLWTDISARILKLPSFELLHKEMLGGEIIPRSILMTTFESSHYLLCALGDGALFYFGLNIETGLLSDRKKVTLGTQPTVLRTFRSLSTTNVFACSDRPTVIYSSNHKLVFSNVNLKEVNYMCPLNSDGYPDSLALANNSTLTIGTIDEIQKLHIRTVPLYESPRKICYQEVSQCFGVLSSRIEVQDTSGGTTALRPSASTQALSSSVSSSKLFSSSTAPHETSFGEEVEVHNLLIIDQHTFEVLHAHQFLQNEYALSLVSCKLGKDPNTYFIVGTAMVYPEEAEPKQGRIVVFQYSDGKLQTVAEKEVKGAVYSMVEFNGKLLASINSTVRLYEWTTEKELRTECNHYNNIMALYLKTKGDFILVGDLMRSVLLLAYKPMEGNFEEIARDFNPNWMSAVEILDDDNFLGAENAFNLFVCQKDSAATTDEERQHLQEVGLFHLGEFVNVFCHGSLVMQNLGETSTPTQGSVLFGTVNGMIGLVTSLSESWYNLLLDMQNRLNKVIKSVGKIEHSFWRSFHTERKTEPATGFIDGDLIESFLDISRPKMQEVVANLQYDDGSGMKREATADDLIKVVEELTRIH

| inhibition at 0.5 µM [1] | inhibition at 2 µM [1] | IC50 (SR) | SMILES | Degradation of substrate protein AKT (AKT) | Degradation of substrate protein Tau (Tau) | other results |
| --- | --- | --- | --- | --- | --- | --- |
| 53 to 60% | 80 to 100% |  | Cn1ncc(Cl)c1-c1cc(C(=O)N[C@@H](Cc2ccc(F)c(F)c2)CN2CCN(Cc3ccc4c(c3)CN(C3CCC(=O)NC3=O)C4=S)CC2)oc1Cl (stereo partly drawn) [GT-08896, 5-chloro-4-(4-chloro-1-methyl-1H-pyrazol-5-yl)-N-((2S)-1-(3,4-difluorophenyl)-3-(4-((2-(2,6-dioxopiperidin-3-yl)-1-thioxoisoindolin-5-yl)methyl)piperazin-1-yl)propan-2-yl)furan-2-carboxamide] | A (0% ≤ substrate protein remaining % ≤ 80%) |  |  |
| 53 to 60% | 60 to 80% |  | O=C1CCC(N2Cc3cc(CN4CCN(c5ccc(-c6ccc7c8cnccc8n(C(F)F)c7c6)cn5)CC4)ccc3C2=S)C(=O)N1 (centres unmarked) [GT-08979, 3-(5-((4-(5-(5-(difluoromethyl)-5H-pyrido[4,3-b]indol-7-yl)pyridin-2-yl)piperazin-1-yl)methyl)-1-thioxoisoindolin-2-yl)piperidine-2,6-dione] |  | A (0% ≤ substrate protein remaining % ≤ 80%) |  |
| 60 to 80% | 60 to 80% |  | Cn1ncc(Cl)c1-c1cc(C(=O)N[C@@H](Cc2cccc(F)c2)CN2CCN(Cc3ccc4c(c3)CN(C3CCC(=O)NC3=O)C4=S)CC2)sc1Cl (stereo partly drawn) [GT-08897, 5-chloro-4-(4-chloro-1-methyl-1H-pyrazol-5-yl)-N-((2S)-1-(4-((2-(2,6-dioxopiperidin-3-yl)-1-thioxoisoindolin-5-yl)methyl)piperazin-1-yl)-3-(3-fluorophenyl)propan-2-yl)thiophene-2-carboxamide] | A (0% ≤ substrate protein remaining % ≤ 80%) |  |  |
| 60 to 80% | 60 to 80% | 10 to 20 nM | CCc1cc2c(cc1N1CCC(N3CCN(Cc4ccc5c(c4)C(=S)N(C4CCC(=O)NC4=O)C5)CC3)CC1)C(C)(C)c1[nH]c3cc(C#N)ccc3c1C2=O (centres unmarked) [GT-05030, 8-(4-(4-((2-(2,6-dioxopiperidin-3-yl)-3-thioxoisoindolin-5-yl)methyl)piperazin-1-yl)piperidin-1-yl)-9-ethyl-6,6-dimethyl-11-oxo-6,11-dihydro-5H-benzo[b]carbazole-3-carbonitrile] |  |  | IC50 (HCC827): 500 to 1000 nM; Degradation of substrate protein ALK (ALK): A (0% ≤ substrate protein remaining % ≤ 80%) |
|  |  | > 10000 nM | C[C@H]1Oc2cc(cnc2N)-c2c(nn(C)c2C#N)CN(C)C(=O)c2ccc(F)cc21 [lorlatinib, reference compound] |  |  | IC50 (HCC827): > 10000 nM; inhibition at 0.01 µM (A375; A-375, 10 nM, read-out: Inhibition Rate at 10 nM (%)): 10 to 20%; inhibition at 0.5 µM (A375; A-375, 500 nM, read-out: Inhibition Rate at 500 nM (%)): 10 to 20%; inhibition at 0.01 µM (CFPAC-1; 10 nM, read-out: Inhibition Rate at 10 nM (%)): 10 to 20%; inhibition at 0.5 µM (CFPAC-1; 500 nM, read-out: Inhibition Rate at 500 nM (%)): 20 to 30%; inhibition at 0.01 µM (MCF-7; MCF7, 10 nM, read-out: Inhibition Rate at 10 nM (%)): 10 to 20%; inhibition at 0.5 µM (MCF-7; MCF7, 500 nM, read-out: Inhibition Rate at 500 nM (%)): 20 to 30%; inhibition at 0.01 µM (MM.1S; Table I-2, ALK inhibitors): -5 to 0%; inhibition at 0.5 µM (MM.1S; Table I-2, ALK inhibitors): -20 to -10%; inhibition at 0.01 µM (MV-4-11; MV4-11, 10 nM, read-out: Inhibition Rate at 10 nM (%)): -20 to -10%; inhibition at 0.5 µM (MV-4-11; MV4-11, 500 nM, read-out: Inhibition Rate at 500 nM (%)): -5 to 0% |
| 53 to 60% | 80 to 100% |  | CC(=O)N1CCCN(c2nc(NCCc3cccs3)nc(N3CCN(Cc4ccc5c(c4)CN(C4CCC(=O)NC4=O)C5=S)CC3)n2)CC1 (centres unmarked) [GT-08867, 3-(5-((4-(4-(4-acetyl-1,4-diazepan-1-yl)-6-((2-(thiophen-2-yl)ethyl)amino)-1,3,5-triazin-2-yl)piperazin-1-yl)methyl)-1-thioxoisoindolin-2-yl)piperidine-2,6-dione] |  | A (0% ≤ substrate protein remaining % ≤ 80%) |  |
| 30 to 40% | 60 to 80% |  | Cn1ncc(Cl)c1-c1cc(C(=O)N[C@H](CNCc2ccc3c(c2)CN(C2CCC(=O)NC2=O)C3=S)Cc2ccc(F)c(F)c2)oc1Cl (stereo partly drawn) [GT-08895, 5-chloro-4-(4-chloro-1-methyl-1H-pyrazol-5-yl)-N-((2S)-1-(3,4-difluorophenyl)-3-(((2-(2,6-dioxopiperidin-3-yl)-1-thioxoisoindolin-5-yl)methyl)amino)propan-2-yl)furan-2-carboxamide] | A (0% ≤ substrate protein remaining % ≤ 80%) |  | inhibition at 0.01 µM (MM.1S; Table I-14, AKT inhibitors): 30 to 40%; inhibition at 0.5 µM (MM.1S; Table I-14, AKT inhibitors): 50 to 60% |
| 60 to 80% | 80 to 100% |  | O=C1CCC(N2Cc3cc(CN4CCN(c5ccn6c(n5)nc5ccccc56)CC4)ccc3C2=S)C(=O)N1 (centres unmarked) [GT-08981, 3-(5-((4-(benzo[4,5]imidazo[1,2-a]pyrimidin-2-yl)piperazin-1-yl)methyl)-1-thioxoisoindolin-2-yl)piperidine-2,6-dione] |  | A (0% ≤ substrate protein remaining % ≤ 80%) |  |
| 40 to 53% | 80 to 100% | 20 to 30 nM | CCc1cc2c(cc1N1CCC(N3CCN(Cc4ccc5c(c4)CN(C4CCC(=O)NC4=O)C5=S)CC3)CC1)C(C)(C)c1[nH]c3cc(C#N)ccc3c1C2=O (centres unmarked) [GT-05097, 8-(4-(4-((2-(2,6-dioxopiperidin-3-yl)-1-thioxoisoindolin-5-yl)methyl)piperazin-1-yl)piperidin-1-yl)-9-ethyl-6,6-dimethyl-11-oxo-6,11-dihydro-5H-benzo[b]carbazole-3-carbonitrile] |  |  | Degradation of substrate protein ALK (ALK): A (0% ≤ substrate protein remaining % ≤ 80%) |
